From patent publication US7691905B2, “Inhibition of melanogenesis and melanoma metastasis with p-aminobenzoic acid (PABA)” (New York University, priority 2002, dated 2010)

Assays:
[1] = test system: B16 melanoma cells; experiment: Melanin secretion of B16 melanoma cells, colour of DMEM medium; type: cell-based; settings: 0.1 mg/ml PABA in DMEM, seven days; unsupplemented medium turned brown
Protocol: The RPMI medium remained red due to the inhibition of melanin secretion. One of the major components in RPMI that is absent in DMEM is PABA. To assess the effect of PABA on melanin secretion from B16 cells, PABA was added to DMEM culture medium to achieve the same concentration as that found in the RPMI medium: 0.1 mg of PABA per milliliter of medium. Cells were grown in PABA-supplemented DMEM medium for seven days. The PABA-supplemented medium remained red, while the unsupplemented medium turned brown.

[2] = test system: B16 melanoma cells; experiment: Melanin content of culture medium by absorbance at 405 nm and 660 nm; type: cell-based; settings: PABA 0.5 mg/day and 1.0 mg/day, DMEM
Protocol: Melanin levels were determined by absorbance at 405 nm wavelength (A) and absorbance at 660 nm wavelength (B). To further analyze the effects of PABA on B16 melanoma cell melanin secretion, PABA was added at concentrations of 0.5 mg/day and 1.0 mg/day to B16 melanoma cells cultured in DMEM. Samples of the culture medium were then analyzed for melanin content by measuring absorbance at wavelengths of 405 nm and 660 nm.

[3] = test system: B16 melanoma cells; experiment: Intracellular melanin, colour of cell pellets; type: cell-based; settings: 0.1 mg/ml PABA, three weeks of culture; untreated pellets black
Protocol: To determine whether PABA inhibits the intracellular synthesis of melanin in B16 cells, cells were grown in DMEM in the presence or absence of 0.1 mg/ml PABA. Following three weeks of culture, cells were collected by centrifugation. Cell pellets from cells cultured in the absence of PABA appeared black, as normal, indicating the presence of melanin.

[4] = test system: tyrosinase; experiment: Tyrosinase activity, Dopachrome formation from L-DOPA (OD 475 nm); type: biochemical; settings: L-DOPA 8.0 mM, 800 U purified tyrosinase
Protocol: Tyrosinase activity was assessed by measuring the formation of Dopachrome from L-DOPA using absorbance at 475 nm wavelength.
The effects of PABA on tyrosinase activity were evaluated by measuring the formation of Dopachrome using a previously published method. (Heidcamp W (1995), supra.) L-DOPA (8.0 mM) was resuspended in sodium citrate buffer and 800 U of purified tyrosinase was added. Tyrosinase activity was measured by monitoring the formation of Dopachrome by measuring the optical density of the mixture at a wavelength of 475 nm. To assess the effects of PABA, the reactions were performed in the presence or absence of PABA. As a control, reactions were performed in the presence of adenosine instead of PABA.

[5] = test system: B16 melanoma cells; experiment: B16 melanoma experimental metastasis in chick embryo model; type: in vivo; settings: cells grown with 0.1 mg/ml PABA for one to three weeks, injected into 12-day old chick embryos, 7-day incubation
Protocol: The number of melanoma metastases were measured by counting the number of metastatic lung tumor lesions present in lungs from sacrificed chick embryos. The effect of PABA on the aggressiveness and invasiveness of B16 melanoma was measured in a chick embryo model. (Brooks PC et al. (1994) Cell 79:1157-1164.) The effects of PABA on B16 experimental metastasis in vivo were evaluated to determine the role melanin synthesis plays in the aggressiveness and invasiveness of melanoma metastasis. B16 melanoma cells grown in the presence or absence of 0.1 mg/ml PABA for one to three weeks were injected into 12-day old chick embryos. At the end of a 7-day incubation period, the embryos were sacrificed and the number of metastatic lung tumor lesions were quantified.

[6] = test system: B16 melanoma cells; experiment: Chick embryo tumor growth assay, B16 melanoma on CAM; type: in vivo; settings: cells grown with 0.1 mg/ml PABA for 6 weeks, CAM of 10-day old chick embryos, 7 days
Protocol: The effect of PABA on solid tumor growth in vivo were evaluated using the chick embryo tumor growth assay. (Petitclerc E et al. (2000) J Biol Chem 275:8051-8061.) B16 melanoma cells were grown in the presence or absence of 0.1 mg/ml PABA for 6 weeks. Cells were harvested and 2.5×10^5 cells from each group were inoculated in the chorioallantoic membranes (CAM) of 10-day old chick embryos. The embryos were allowed to develop for a further seven days. At the end of the 7-day incubation period, the embryos were sacrificed and the tumors removed and wet weights determined. Tumors formed from B16 melanoma cells treated with PABA were, on average, 60% smaller than tumors derived from untreated B16 melanoma cells (FIG. 4).

[7] = test system: B16 melanoma cells; experiment: B16 melanoma cell proliferation with ionizing radiation, direct cell counts; type: cell-based; settings: 0.1 mg/ml PABA plus single fraction dose of 10 Gy, 3-day incubation
Protocol: (§1) Cell proliferation was determined by direct cell counts.
(Kinnaert E et al. (2000) Radiation Res 154:497-502.) Thus, blocking melanin synthesis or melanogenesis may cause melanoma cells to become much more sensitive to radiation therapy. To test the effect of PABA on the anti-proliferative effects of ionizing radiation, B16 melanoma cells grown in the presence or absence of 0.1 mg/ml PABA were treated with a single fraction dose of 10 Gy of ionizing radiation. Cell proliferation was monitored by direct cell counts over a 3-day incubation period.

[8] = test system: human G-361 melanoma cells; experiment: Human G-361 melanoma cell proliferation with ionizing radiation, direct cell counts; type: cell-based; settings: 0.1 mg/ml PABA plus 20 Gy
Protocol: as §1
The radiation-enhancing effect of PABA on melanoma observed in B16 melanoma cells was confirmed in the pigmented human melanoma cell line G-361 (ATCC Number CRL-1424, (1978) Pediatr Res 12:485.) The human G-361 melanoma cells are more resistant to radiation than B16 melanoma cells and thus require a higher dose of ionizing radiation to inhibit growth, compared to B16 cells. Human G-361 melanoma cells were treated with 20 Gy of radiation, either alone or in combination with 0.1 mg/ml PABA, as described in example 7.

[9] = test system: Lewis Lung Carcinoma (LLC) cells; experiment: Lewis Lung Carcinoma cell proliferation, direct cell counts; type: cell-based; settings: 0.1 mg/ml PABA, DMEM, 48-hour incubation
Protocol: The anti-proliferative effect of PABA on carcinoma cells was tested on Lewis Lung Carcinoma (LLC) cells. (Young M R et al. (2003) Int J Cancer 103:38-44.) Cells were grown in DMEM medium in the presence or absence of 0.1 mg/ml PABA. Cell proliferation was monitored by direct cell counts over a 48-hour incubation period.

[10] = test system: Lewis Lung Carcinoma (LLC) cells; experiment: Lewis Lung Carcinoma tumor growth assay on chick embryo CAM; type: in vivo; settings: cells grown with 0.1 mg/ml PABA for 3 weeks, 7 days
Protocol: The effect of PABA on the growth of carcinoma tumors was tested using the Lewis Lung Carcinoma (LLC) tumor growth assay. (Mauceri H J et al. (2002) Cancer Chemother Pharmacol 50:412-418.) LLC cells were grown in DMEM medium in the presence or absence of 0.1 mg/ml PABA for 3 weeks. Cells were harvested and 2×10^6 cells from each group were inoculated in the CAMs of 10-day old chick embryos. The embryos were allowed to develop for a further seven days. At the end of the 7-day incubation period, the embryos were sacrificed and the tumors removed and wet weights determined.

[11] = test system: B16F10 melanoma cells; experiment: Chick embryo tumor growth assay, B16F10 melanoma, PABA and ionizing radiation; type: in vivo; settings: tumor wet weight after 7 days
Protocol: The chick embryo tumor growth assay (Petitclerc E et al. (2000) J Biol Chem 275:8051-8061) was used to determine whether PABA enhances the effect of ionizing radiation to inhibit tumor growth in vivo. Four groups of chick embryos were studied. […] There were 5 to 10 chick embryos in each group.
The groups were created in the following manner. B16F10 melanoma cells were cultured for 14 days in growth medium in the absence of PABA or in the presence of PABA at a concentration of 100 μg/ml. The cells were harvested, washed, and resuspended in sterile PBS. The B16F10 melanoma cells were implanted on the CAMs of 10-day-old chick embryos, which were then incubated for at least 24 hours. The incubated chick embryos (some that were cultured in the absence of PABA and some that cultured in the presence of PABA) were treated with a single fraction dose of ionizing radiation (5.0 Gy). The embryos were incubated for 7 days and then the chick embryos of each group were sacrificed. The tumors were resected and tumor growth was assessed by measuring the wet weights of the resected tumors.

[12] = test system: B16F10 melanoma cells; experiment: In vivo xenograft study of PABA and radiation, B16F10 melanoma; design: species or system Balb/c nude mice; settings: tumor volume after 15 days
Protocol: 1×10^6 B16F10 melanoma cells (cultured in the absence of PABA) were implanted subcutaneously into Balb/c nude mice. Intraperitoneal injections of PABA at a concentration of 50 mg/kg were started 3 days after implantation of the tumor cells and continued daily. Ten days following tumor cell implantation, mice were either not irradiated or were irradiated with 3 fractions of 3 Gy every other day for a total dose of 9 Gy.
After 15 days, the animals were sacrificed and the tumors were resected. The tumors were measured and their volumes were calculated.

[13] = test system: transplantable melanoma; settings: hamsters; Zbytniewski et al. 1977; cited from earlier work
[14] = test system: B16 melanoma cells; experiment: B16 melanoma cell proliferation with PABA and/or Taxol, direct cell counts; type: cell-based; settings: 10.0 μM paclitaxel and/or 0.1 mg/ml PABA, DMEM, 48-hour incubation
Protocol: as §1
The ability of PABA to enhance the anti-proliferative effect of the chemotherapeutic agent, Taxol, was tested in B16 melanoma cells. […] Cell proliferation was monitored by direct cell counts over a 48-hour incubation period.

Nc1ccc(C(=O)O)cc1 [PABA, para-Aminobenzoic acid]
colour of culture medium (accumulation of secreted melanin) [1]: remained red
melanin secretion (absorbance of medium at 405 nm and 660 nm) [2]: time dependent and concentration dependent inhibition of melanin secretion
colour of cell pellets (melanin accumulation) [3]: much lighter in color
tyrosinase activity (Dopachrome formation) [4]: dose dependent inhibition of Dopachrome formation
number of metastatic lung tumor lesions [5]: time dependent inhibition of B16 melanoma metastasis
tumor size (wet weight) reduction vs tumors from untreated cells [6]: 60%
cell proliferation after radiation, PABA vs no PABA [7]: increased the anti-proliferative and cytotoxic effects
cell proliferation, PABA in combination with radiation [8]: essentially completely inhibited the proliferation
cell proliferation [9]: increased the proliferation of LLC cells
tumor size (wet weight) vs tumors from untreated LLC cells [10]: significantly larger
inhibition of tumor growth as compared to the control group ([11]; PABA 100 μg/ml plus single fraction ionizing radiation 5.0 Gy): about 90%
inhibition of tumor growth as compared to the control group ([11]; PABA alone, cells cultured 14 days with 100 μg/ml PABA): about 75%
inhibition of tumor growth as compared to control ([12]; PABA 50 mg/kg i.p. daily plus 3 fractions of 3 Gy (9 Gy), P<0.002): about 95%
effect on tumor growth as compared to control ([12]; PABA alone 50 mg/kg i.p. daily, P>0.100): minimal effect on tumor growth

NCc1ccc(C(=O)O)cc1 [PAMBA, para-Aminomethylbenzoic acid]
invasiveness of transplantable melanoma metastases [13]: reducing the invasiveness of transplantable melanoma metastases in hamsters

CC(=O)O[C@H]1C(=O)[C@@]2(C)[C@H]([C@H](OC(=O)c3ccccc3)[C@]3(O)C[C@H](OC(=O)[C@H](O)[C@@H](NC(=O)c4ccccc4)c4ccccc4)C(C)=C1C3(C)C)[C@]1(OC(C)=O)CO[C@@H]1C[C@@H]2O [Paclitaxel, paclitaxel]
cell proliferation [14]: significantly inhibited B16 melanoma cell proliferation
